Measurements as given in BindingDB's records for doi:10.3109/14756366.2010.504674 (University of Bonn, 2011).

Experiments:
Assay in all cases: Cholinesterase Inhibition Assay
Details in all cases: pH 7.3; 25 °C
Cholinesterase = Cholinesterase (Homo sapiens, UniProt P06276)
Protocol: (§1) Cholinesterase inhibition was assayed spectrophotometrically at 412 nm at 25°C [Pietsch et al., J. Med. Chem., 48:8270-8288; Ellman et al., Biochem. Pharmacol., 7:88-95]. Product formation was monitored over 5 min. Assay buffer was 100 mM sodium phosphate, 100 mM NaCl, pH 7.3. Enzyme stock solutions were prepared with assay buffer in the following concentrations ∼ 100 U/mL (EeAChE),∼ 3 U/mL (hAChE), ∼ 10 U/mL (hBChE), and were kept at 0°C. Appropriate dilutions of the EeAChE (1:30) and hBChE (1:10) solutions were done immediatelybefore starting the measurements. Solutions of ATCh (5, 10, 15, or 20 mM), BTCh (10 mM), and DTNB (7 mM) were prepared in assay buffer and kept at 0°C. Stock solutions of the inhibitors were prepared in acetonitrile. EeAChE was assayed as follows. Into a cuvette containing 830 μL assay buffer, 50 μL of the DTNB solution, 50 μL acetonitrile, 10 μL of an inhibitor solution, and 10 μL of an enzyme solution were added and thoroughly mixed. After incubation for 15 minat 25°C, the reaction was initiated by adding 50 μL of the ATCh solution. The following final concentration were used, ∼ 0.033 U/mL of EeAChE, 250, 500, 750, or 1000 μM of ATCh, 350 μM of DTNB, 6% acetonitrile. Similarly, hAChE (final concentration ∼ 0.03 U/mL) was assayed with 500 μM ATCh, and hBChE (finalconcentration ∼ 0.01 U/mL) with 500 μM BTCh. The rates of enzyme-catalyzed substrate hydrolysis were corrected by those of the non-enzymatic hydrolysis ofATCh or BTCh, respectively, as determined by using 10 μL of assay buffer, instead of the enzyme solution. A Km value of 550 μM19 for the substrate ATCh used in the EeAChE assay was taken for kinetic analyses.

Acetylcholinesterase [1] = target: Acetylcholinesterase (Electrophorus electricus, UniProt O42275)
Protocol: as §1

Acetylcholinesterase [2] = target: Acetylcholinesterase (Homo sapiens, UniProt P22303)
Protocol: as §1

Sequence of Cholinesterase (P06276 whole entry): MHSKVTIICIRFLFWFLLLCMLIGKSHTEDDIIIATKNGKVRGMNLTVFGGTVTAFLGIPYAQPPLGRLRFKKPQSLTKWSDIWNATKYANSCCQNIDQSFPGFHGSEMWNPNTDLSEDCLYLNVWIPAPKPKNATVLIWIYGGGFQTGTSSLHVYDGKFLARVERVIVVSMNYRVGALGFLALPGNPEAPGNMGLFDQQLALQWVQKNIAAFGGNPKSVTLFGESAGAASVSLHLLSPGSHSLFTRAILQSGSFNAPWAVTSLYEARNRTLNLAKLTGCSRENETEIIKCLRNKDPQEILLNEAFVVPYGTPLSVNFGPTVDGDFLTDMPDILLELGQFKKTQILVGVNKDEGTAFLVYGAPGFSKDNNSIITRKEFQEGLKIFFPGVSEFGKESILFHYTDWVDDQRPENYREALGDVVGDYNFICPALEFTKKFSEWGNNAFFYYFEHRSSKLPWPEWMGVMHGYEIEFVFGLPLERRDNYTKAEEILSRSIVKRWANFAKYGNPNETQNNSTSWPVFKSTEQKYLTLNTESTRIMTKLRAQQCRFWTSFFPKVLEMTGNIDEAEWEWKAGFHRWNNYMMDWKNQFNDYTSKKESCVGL
Sequence of Acetylcholinesterase (Homo sapiens, UniProt P22303) (P22303 whole entry): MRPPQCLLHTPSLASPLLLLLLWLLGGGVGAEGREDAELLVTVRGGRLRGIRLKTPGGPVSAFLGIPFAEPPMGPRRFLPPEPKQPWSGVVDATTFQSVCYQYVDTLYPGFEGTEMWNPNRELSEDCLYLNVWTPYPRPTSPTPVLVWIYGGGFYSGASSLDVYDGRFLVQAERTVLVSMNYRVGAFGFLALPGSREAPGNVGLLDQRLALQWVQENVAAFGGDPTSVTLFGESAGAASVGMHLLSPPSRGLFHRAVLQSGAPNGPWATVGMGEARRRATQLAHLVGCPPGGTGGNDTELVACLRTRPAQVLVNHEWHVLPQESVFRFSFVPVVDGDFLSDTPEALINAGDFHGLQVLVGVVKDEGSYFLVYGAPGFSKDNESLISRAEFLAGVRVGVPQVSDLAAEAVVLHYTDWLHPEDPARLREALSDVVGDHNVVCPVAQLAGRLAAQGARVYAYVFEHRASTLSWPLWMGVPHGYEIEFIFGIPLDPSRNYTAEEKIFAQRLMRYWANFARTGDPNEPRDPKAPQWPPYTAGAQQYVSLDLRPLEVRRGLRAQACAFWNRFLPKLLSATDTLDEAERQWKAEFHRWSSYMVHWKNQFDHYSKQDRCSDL
Sequence of Acetylcholinesterase (Electrophorus electricus, UniProt O42275) (O42275 whole entry): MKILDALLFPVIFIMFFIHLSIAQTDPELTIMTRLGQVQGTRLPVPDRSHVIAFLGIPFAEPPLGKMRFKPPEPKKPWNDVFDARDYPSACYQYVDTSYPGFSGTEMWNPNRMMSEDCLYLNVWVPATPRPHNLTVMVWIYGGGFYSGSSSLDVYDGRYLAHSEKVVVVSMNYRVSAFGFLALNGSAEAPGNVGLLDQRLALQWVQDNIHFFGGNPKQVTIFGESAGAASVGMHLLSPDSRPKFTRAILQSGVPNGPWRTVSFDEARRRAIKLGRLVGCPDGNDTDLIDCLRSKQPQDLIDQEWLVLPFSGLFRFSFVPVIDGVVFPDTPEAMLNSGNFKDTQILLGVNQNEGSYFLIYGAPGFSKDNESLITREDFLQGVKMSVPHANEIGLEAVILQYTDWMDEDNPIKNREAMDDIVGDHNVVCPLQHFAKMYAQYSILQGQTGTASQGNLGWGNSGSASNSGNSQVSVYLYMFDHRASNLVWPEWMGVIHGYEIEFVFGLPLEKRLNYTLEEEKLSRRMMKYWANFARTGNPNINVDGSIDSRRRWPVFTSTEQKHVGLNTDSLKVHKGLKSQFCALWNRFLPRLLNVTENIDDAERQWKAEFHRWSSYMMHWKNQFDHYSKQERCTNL

Structure (SMILES)	IC50 (Cholinesterase) [µM]	IC50 (Acetylcholinesterase [1]) [µM]	Ki (Acetylcholinesterase [1]) [µM]	IC50 (Acetylcholinesterase [2]) [µM]
C1=Nc2sc3c(c2C2=NCCCN12)CCN(Cc1ccccc1)C3 [10-Benzyl-3,4,9,10,11,12-hexahydro-2H-pyrido[4′,3′:4,5]thieno[3,2-e]pyrimido[1,2-c]pyrimidin (14)]	119	1.73	1.5	62.5
C1=Nc2sc3c(c2C2=NCCN12)CCCC3 [2,3,8,9,10,11-Hexahydro-benzothieno[3,2-e]imidazo[1,2-c]pyrimidine (11)]	88	1.75	1.32	56
O=C1c2c(sc3c2CCCC3)NC2=NCCCN12 [2,3,4,7,8,9,10,12-Octahydro-6H-benzothieno[2,3-d]pyrimido[1,2-a]pyrimidin-6-one (8)]	> 200	> 75		> 200
C1=Nc2sc3c(c2C2=NCCCN12)CCCC3 [3,4,9,10,11,12-Hexahydro-2H-benzothieno[3,2-e]pyrimido[1,2-c]pyrimidine (12)]	131	2.26	1.92	20.5
O=C1c2c(sc3c2CCN(Cc2ccccc2)C3)NC2=NCCCN12 [9-Benzyl-2,3,4,7,8,9,10,12-octahydro-6H-pyrido[4′,3′:4,5]thieno[2,3-d]pyrimido[1,2-a]pyrimidin-6-one (10)]	51.5	1.51	2.07	5.69
C1=Nc2sc3c(c2C2=NCCN12)CCN(Cc1ccccc1)C3 [9-Benzyl-2,3,8,9,10,11-hexahydro-imidazo[1,2-c]pyrido[4′,3′:4,5]thieno[3,2-e]pyrimidine (13)]	89.9	3.09	2.36	21.8
O=C1c2c(sc3c2CCN(Cc2ccccc2)C3)NC2=NCCN12 [8-Benzyl-2,3,6,7,8,9-hexahydro-imidazo[1,2-a]pyrido[4′,3′:4,5]thieno[2,3-d]pyrimidin-5(11H)-one (9)]	> 200	1.35	1.55	14.2
O=C1c2c(sc3c2CCCC3)NC2=NCCN12 [2,3,6,7,8,9-Hexahydro-benzothieno[2,3-d]-imidazo[1,2-a]pyrimidin-5(11H)-one (7)]	> 200	> 75		> 200
